Active and inactive are the calls of the source. The rule behind the calls is not given here.
Legend:
Assay type in all cases: functional
Platelet [1] = experiment: Antiplatelet activity against rat platelet rich plasma assessed as inhibition of arachidonic acid-induced platelet aggregation at 0.25 mg/ml pretreated 2 mins before arachidonic acid challenge
Platelet [2] = experiment: Antiplatelet activity against rat platelet rich plasma assessed as inhibition of arachidonic acid-induced platelet aggregation at 0.5 mg/ml pretreated 2 mins before arachidonic acid challenge
Platelet [3] = experiment: Antiplatelet activity against rat platelet rich plasma assessed as inhibition of ADP-induced platelet aggregation at 1 mg/ml pretreated 2 mins before ADP challenge
[4] = Antiplatelet activity against rat platelet rich plasma assessed as inhibition of arachidonic acid-induced platelet aggregation pretreated 2 mins before arachidonic acid challenge
Platelet [5] = experiment: Antiplatelet activity against rat platelet rich plasma assessed as inhibition of collagen-induced platelet aggregation at 0.25 mg/ml pretreated 2 mins before collagen challenge
[6] = Antiplatelet activity against rat platelet rich plasma assessed as inhibition of ADP-induced platelet aggregation pretreated 2 mins before ADP challenge
[7] = Antiplatelet activity against rat platelet rich plasma assessed as inhibition of collagen-induced platelet aggregation pretreated 2 mins before collagen challenge
Platelet [8] = experiment: Antiplatelet activity against rat platelet rich plasma assessed as inhibition of ADP-induced platelet aggregation at 0.5 mg/ml pretreated 2 mins before ADP challenge
Platelet [9] = experiment: Antiplatelet activity against rat platelet rich plasma assessed as inhibition of arachidonic acid-induced platelet aggregation at 0.1 mg/ml pretreated 2 mins before arachidonic acid challenge
Platelet [10] = experiment: Antiplatelet activity against rat platelet rich plasma assessed as inhibition of collagen-induced platelet aggregation at 0.1 mg/ml pretreated 2 mins before collagen challenge
Platelet [11] = experiment: Antiplatelet activity against rat platelet rich plasma assessed as inhibition of collagen-induced platelet aggregation at 0.05 mg/ml pretreated 2 mins before collagen challenge

COC(=O)c1ccc(O)c(O)c1
Activity (Platelet [1]): Active
Activity (Platelet [2]): Active
Activity (Platelet [3]): Active

CCOC(=O)c1ccc(O)c(O)c1
Activity (Platelet [1]): Active
Activity [4]: 5.5 ×10⁻⁴ M
Activity (Platelet [5]): Active
Activity (Platelet [2]): Active
Activity [6]: 2.7 mM
Activity [7]: 1.4 mM
Activity (Platelet [8]): Active
Activity (Platelet [3]): Active
Activity (Platelet [9]): Active

O=C(O)c1ccc(O)c(O)c1 [PROTOCATECHUIC ACID]
Activity [4]: 3.2 mM
Activity (Platelet [5]): Active
Activity (Platelet [2]): Active
Activity [6]: 6.5 mM
Activity [7]: 1.6 mM
Activity (Platelet [3]): Active

COC(=O)c1ccc(O)cc1O
Activity (Platelet [1]): Active
Activity (Platelet [2]): Active
Activity (Platelet [3]): Active

COC(=O)c1ccc(OC)c(OC)c1
Activity (Platelet [1]): Active
Activity (Platelet [5]): Active
Activity (Platelet [2]): Active
Activity (Platelet [10]): Active

O=C(O)c1cc(O)ccc1O
Activity (Platelet [5]): Active
Activity (Platelet [2]): Active
Activity (Platelet [3]): Active

CCOc1ccc(C(=O)O)cc1OCC
Activity (Platelet [1]): inactive
Activity (Platelet [5]): inactive
Activity (Platelet [2]): Active
Activity (Platelet [3]): Active
Activity (Platelet [10]): inactive

COc1cccc(OC)c1C(=O)O
Activity (Platelet [1]): inactive
Activity (Platelet [5]): Active

O=C(O)c1c(O)cccc1O
Activity (Platelet [5]): Active
Activity (Platelet [2]): Active

COc1ccc(C(=O)O)c(OC)c1
Activity (Platelet [5]): Active
Activity (Platelet [2]): Active
Activity (Platelet [3]): Active

O=C(O)c1cccc(O)c1O
Activity (Platelet [1]): Active
Activity (Platelet [5]): Active
Activity (Platelet [2]): Active
Activity (Platelet [3]): Active

CC(=O)Oc1ccccc1C(=O)O [ASPIRIN]
Activity (Platelet [11]): inactive
Activity (Platelet [1]): Active
Activity [4]: 2.8 ×10⁻⁴ M
Activity (Platelet [5]): Active
Activity (Platelet [2]): Active
Activity [6]: 5.6 mM
Activity [7]: 1.4 mM
Activity (Platelet [3]): Active
Activity (Platelet [9]): Active

COc1cc(CC(=O)O)ccc1O
Activity (Platelet [1]): Active
Activity (Platelet [3]): Active

COC(=O)c1cc(OC)cc(OC)c1
Activity (Platelet [5]): Active
Activity (Platelet [2]): Active

CCOC(=O)c1cc(O)cc(O)c1
Activity (Platelet [2]): Active
Activity (Platelet [3]): Active

COc1cc(OC)cc(C(=O)O)c1
Activity (Platelet [5]): inactive
Activity (Platelet [8]): inactive
Activity (Platelet [10]): inactive

COc1ccc(C(=O)O)cc1OC
Activity (Platelet [1]): inactive
Activity (Platelet [8]): inactive

COC(=O)c1ccc(OC)cc1O
Activity (Platelet [1]): inactive
Activity (Platelet [5]): Active
Activity (Platelet [8]): inactive

O=C(O)c1cc(O)cc(O)c1
Activity (Platelet [5]): Active
Activity (Platelet [2]): Active
Activity (Platelet [3]): Active

CCOC(=O)c1ccc(O)cc1O
Activity (Platelet [1]): Active
Activity (Platelet [2]): Active
Activity (Platelet [3]): Active

COc1cc(C(=O)O)ccc1O
Activity (Platelet [1]): inactive
Activity (Platelet [5]): Active
Activity (Platelet [2]): Active
Activity (Platelet [3]): Active

COc1cccc(C(=O)O)c1O
Activity (Platelet [2]): Active
Activity (Platelet [3]): Active

COc1cccc(C(=O)O)c1OC
Activity (Platelet [1]): inactive
Activity (Platelet [5]): Active
Activity (Platelet [2]): inactive
Activity (Platelet [3]): Active

O=C(O)c1ccc(O)cc1O
Activity (Platelet [1]): Active
Activity (Platelet [5]): Active
Activity (Platelet [2]): Active
Activity (Platelet [3]): Active
Activity (Platelet [10]): Active
Activity (Platelet [9]): Active

COc1ccc(C(=O)O)c(O)c1
Activity (Platelet [5]): Active
Activity (Platelet [2]): Active

COc1ccc(C(=O)O)cc1O
Activity (Platelet [1]): inactive
Activity (Platelet [2]): Active
Activity (Platelet [3]): Active

CCOC(=O)c1cccc(O)c1O
Activity (Platelet [1]): Active
Activity (Platelet [2]): Active
Activity (Platelet [3]): Active

COC(=O)c1ccc(O)c(OC)c1
Activity (Platelet [1]): Active
Activity (Platelet [5]): Active
Activity (Platelet [2]): Active
Activity (Platelet [3]): Active
Activity (Platelet [10]): Active

COC(=O)c1cc(O)cc(O)c1
Activity (Platelet [1]): Active
Activity (Platelet [5]): Active
Activity (Platelet [2]): Active
Activity (Platelet [3]): Active
Activity (Platelet [9]): Active

COc1ccc(O)c(C(=O)O)c1
Activity (Platelet [1]): inactive
Activity (Platelet [5]): Active
Activity (Platelet [3]): Active

COC(=O)c1cccc(O)c1O
Activity (Platelet [1]): Active
Activity (Platelet [2]): Active
Activity (Platelet [3]): Active
